Assay results as given in patent publication US10155750B2, “Amidoethyl azole orexin receptor antagonists” (Merck Sharp & Dohme Corp., priority 2014, dated 2018).

Tests used:
[1] = biological target: hOX1R (orexin-1 receptor) (Homo sapiens, UniProt O43613); assay: FLIPR Ca2+ flux assay, hOX1R; type: cell-based; details: CHO cells expressing the receptor; agonist 70 pM Ala-6,12 human orexin-A
[2] = biological target: human orexin-2 receptor (Homo sapiens (Human), UniProt O43614); assay: FLIPR Ca2+ flux assay, hOX2R; type: cell-based; details: CHO cells expressing the receptor; agonist 70 pM Ala-6,12 human orexin-A
human orexin-2 receptor, sequence (O43614 whole entry): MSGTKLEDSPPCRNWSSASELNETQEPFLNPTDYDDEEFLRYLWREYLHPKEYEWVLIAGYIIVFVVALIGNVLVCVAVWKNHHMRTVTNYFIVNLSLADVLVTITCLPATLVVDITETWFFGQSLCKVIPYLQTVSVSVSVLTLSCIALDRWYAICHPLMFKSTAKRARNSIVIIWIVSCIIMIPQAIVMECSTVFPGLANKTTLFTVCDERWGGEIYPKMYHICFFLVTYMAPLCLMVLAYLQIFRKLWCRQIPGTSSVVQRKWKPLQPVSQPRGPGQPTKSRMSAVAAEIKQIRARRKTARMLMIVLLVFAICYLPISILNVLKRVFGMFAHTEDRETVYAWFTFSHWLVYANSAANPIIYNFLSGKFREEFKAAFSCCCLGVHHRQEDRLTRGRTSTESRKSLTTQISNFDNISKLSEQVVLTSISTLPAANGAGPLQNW
Procedure: The utility of the compounds in accordance with the present invention as orexin receptor OX1R and/or OX2R antagonists may be readily determined without undue experimentation by methodology well known in the art, including the “FLIPR Ca^2+ Flux Assay” (Okumura et al., Biochem. Biophys. Res. Comm. 280:976-981, 2001). In a typical experiment the OX1 and OX2 receptor antagonistic activity of the compounds of the present invention was determined in accordance with the following experimental method. For intracellular calcium measurements, Chinese hamster ovary (CHO) cells expressing the rat orexin-1 receptor or the human orexin-2 receptor, are grown in Iscove's modified DMEM containing 2 mM L-glutamine, […], 1% hypoxanthine-thymidine supplement, 100 U/ml penicillin, 100 μg/ml streptomycin and 10% heat-inactivated fetal calf serum (FCS). The cells are seeded at 20,000 cells/well into Becton-Dickinson black 384-well clear bottom sterile plates coated with poly-D-lysine. All reagents were from GIBCO-Invitrogen Corp. The seeded plates are incubated overnight at 37° C. and 5% CO2. Ala-6,12 human orexin-A as the agonist is prepared as a 1 mM stock solution in 1% bovine serum albumin (BSA) and diluted in assay buffer (HBSS containing 20 mM HEPES, 0.1% BSA and 2.5 mM probenecid, pH7.4) for use in the assay at a final concentration of 70 pM. Test compounds are prepared as 10 mM stock solution in DMSO, then diluted in 384-well plates, first in DMSO, then assay buffer. On the day of the assay, cells are washed 3 times with 100 μl assay buffer and then incubated for 60 min (37° C., 5% CO2) in 60 μl assay buffer containing 1 μM Fluo-4AM ester, 0.02% pluronic acid, and 1% BSA. The dye loading solution is then aspirated and cells are washed 3 times with 100 μl assay buffer. 30 μl of that same buffer is left in each well. Within the Fluorescent Imaging Plate Reader (FLIPR, Molecular Devices), test compounds are added to the plate in a volume of 25 μl, incubated for 5 min and finally 25 μl of agonist is added. Fluorescence is measured for each well at 1 second intervals for 5 minutes and the height of each fluorescence peak is compared to the height of the fluorescence peak induced by 70 pM Ala-6,12 orexin-A with buffer in place of antagonist. For each antagonist, IC50 value (the concentration of compound needed to inhibit 50% of the agonist response) is determined. Alternatively, compound potency can be assessed by a radioligand binding assay (described in Bergman et. al. Bioorg. Med. Chem. Lett. 2008, 18, 1425-1430) in which the inhibition constant (Ki) is determined in membranes prepared from CHO cells expressing either the OX1 or OX2 receptor. The intrinsic orexin receptor antagonist activity of a compound which may be used in the present invention may be determined by these assays.

Row | Compound | IC50 [1] [µM] | IC50 [2] [nM]
1 | CCN(CCn1nc(C)c(C(C)(C)O)n1)C(=O)c1ccccc1C1CCC1 [Example 40, 2-cyclobutyl-N-ethyl-N-(2-(4-(2-hydroxypropan-2-yl)-5-methyl-2H-1,2,3-triazol-2-yl)ethyl)benzamide] | 1.17 | 13
2 | CCN(CCn1nc(C)c(C(C)(C)O)n1)C(=O)c1ccccc1N1CCCC1 [Example 41, N-ethyl-N-(2-(4-(2-hydroxypropan-2-yl)-5-methyl-2H-1,2,3-triazol-2-yl)ethyl)-2-(pyrrolidin-1-yl)benzamide] | 2.1 | 15
3 | CCN(CCn1nc(C)c(C(C)(C)O)n1)C(=O)c1ccccc1-n1ncnn1 [Example 42, N-ethyl-N-(2-(4-(2-hydroxypropan-2-yl)-5-methyl-2H-1,2,3-triazol-2-yl)ethyl)-2-(2H-tetrazol-2-yl)benzamide] | > 10 | 29
4 | CCN(CCn1nc(C)c(C(C)(C)O)n1)C(=O)c1ncccc1-n1nccn1 [Example 43, N-ethyl-N-(2-(4-(2-hydroxypropan-2-yl)-5-methyl-2H-1,2,3-triazol-2-yl)ethyl)-3-(2H-1,2,3-triazol-2-yl)picolinamide] | > 10 | 180
5 | CCN(CCn1nc(C)c(C(C)(C)O)n1)C(=O)c1ncccc1-c1ccccc1 [Example 44, N-ethyl-N-(2-(4-(2-hydroxypropan-2-yl)-5-methyl-2H-1,2,3-triazol-2-yl)ethyl)-3-phenylpicolinamide] | > 10 | 106
6 | CCN(CCn1nc(C)c(C(C)(C)O)n1)C(=O)c1nccnc1-c1ccccn1 [Example 45, N-ethyl-N-(2-(4-(2-hydroxypropan-2-yl)-5-methyl-2H-1,2,3-triazol-2-yl)ethyl)-3-(pyridin-2-yl)pyrazine-2-carboxamide] | > 10 | 87
7 | CCN(CCn1nc(C)c(C(C)(C)O)n1)C(=O)c1nccnc1-n1cccn1 [Example 47, N-ethyl-N-(2-(4-(2-hydroxypropan-2-yl)-5-methyl-2H-1,2,3-triazol-2-yl)ethyl)-3-(1H-pyrazol-1-yl)pyrazine-2-carboxamide] | > 10 | 239
8 | CCN(CCn1nc(C)c(C(C)(C)O)n1)C(=O)c1cccnc1-n1cccn1 [Example 48, N-ethyl-N-(2-(4-(2-hydroxypropan-2-yl)-5-methyl-2H-1,2,3-triazol-2-yl)ethyl)-2-(1H-pyrazol-1-yl)nicotinamide] | 7.52 | 13
9 | CCN(CCn1cc(C(C)(C)O)cn1)C(=O)c1ccccc1-n1nccn1 [Example 49, N-Ethyl-N-{2-[4-(1-hydroxy-1-methylethyl)-1H-pyrazol-1-yl]ethyl}-2-(2H-1,2,3-triazol-2-yl)benzamide] | > 10 | 35
10 | CCN(CCn1ccc(C(C)(C)O)n1)C(=O)c1ccccc1-n1nccn1 [Example 50, N-Ethyl-N-{2-[3-(1-hydroxy-1-methylethyl)-1H-pyrazol-1-yl]ethyl}-2-(2H-1,2,3-triazol-2-yl)benzamide] | > 10 | 23
